Measured values published in US12378211B2, “Carbonic anhydrase inhibitors and antibiotics against multidrug resistant bacteria” (Purdue Research Foundation, priority 2018, dated 2025).
Converted amounts (≈) assume the structure as drawn. Like-named read-outs stand apart in the source and are kept apart here.

Experiments:
[1] = test system: Enterococcus faecium E417-HM-965; assay: MIC of CAIs in BHIB and TSB; type: cell-based
Procedure: (§1) The minimum inhibitory concentrations (MICs) of CAIs were tested against clinical isolates of vancomycin sensitive and vancomycin resistant Enterococci strains as per the guidelines provided by the Clinical and Laboratory Standards Institute (CLSI). The selected strains of Enterococci were streaked on Tryptic Soy Agar (TSA) plates and let grow for 24 hours at 37° C. Afterwards, a bacterial solution equivalent to 0.5 McFarland standard was prepared and diluted in tryptone soy broth (TSB) or brain heart infusion broth (BHIB) to achieve a bacterial concentration of about 5×10^5 CFU/mL and seeded in 96-well well plates. Compounds and control drugs were added in the first row of the 96-well plates and serially diluted along the plates. Plates were then incubated aerobically at 37° C. for 18-20 hours. MICs reported in Table 5 are the minimum concentration of the compounds/control drugs that could inhibit completely the visual growth of the bacteria.

[2] = test system: Enterococcus faecium Patient #2-1-NR-31909; assay: MIC of CAIs in BHIB and TSB; type: cell-based
Procedure: as §1

[3] = test system: Enterococcus fecalis Strain SF 24397 NR31970; assay: MIC of CAIs in BHIB and TSB; type: cell-based
Procedure: as §1

[4] = test system: Enterococcus faecalis—S613 HM-334; assay: MIC of CAIs in BHIB and TSB; type: cell-based
Procedure: as §1, with “bacteria. The MIC values of CAIs against the tested VRE strains were higher in BHIB than in TSB. This may be due to binding of these drugs to proteins. […] They inhibited the VRE strains at MIC values ranging from 1 to 4 μg/mL.” for “bacteria.”

[5] = test system: Enterococcus faecalis-S613 HM-334; assay: MIC in presence of 4% human serum albumin; type: cell-based; settings: Enterococcus; TSB supplemented with 4% human serum albumin; read-out: MIC
Procedure: as §1, with “against” for “against clinical isolates of vancomycin sensitive and”, “resistant Enterococcus faecalis—S613 HM 334 strain” for “resistant Enterococci strains”, “selected strain was” for “selected strains of Enterococci were”, “(TSA) plate” for “(TSA) plates”, “(TSB) supplemented with 4% human serum albumin (HAS)” for “(TSB) or brain heart infusion broth (BHIB)”, “in table (6)” for “in Table 5”

[6] = test system: Enterococcus faecalis—S613 HM-334; assay: MIC, broth microdilution in TSB; type: cell-based; settings: Enterococcus
Procedure: (§2) The minimum inhibitory concentrations (MICs) of the compounds and control drugs were determined using the broth microdilution method, according to guidelines outlined by the Clinical and Laboratory Standards Institute (CLSI). Enterococci strains were grown aerobically overnight on tryptone soya agar plates at 37° C., afterwards a bacterial solution equivalent to 0.5 McFarland standard was prepared and diluted in tryptone soy broth (TSB) to achieve a bacterial concentration of about 5×10^5 CFU/mL and seeded in 96-well well plates. Compounds and control drugs were added in the first row of the 96-well plates and serially diluted along the plates. Plates were then incubated aerobically at 37° C. for 18-20 hours. MICs reported in Table 1 are the minimum concentration of the compounds/control drugs that could inhibit completely the visual growth of the bacteria.

[7] = test system: Enterococcus faecium E417-HM-965; assay: MIC, broth microdilution in TSB; type: cell-based; settings: Enterococcus faecium
Procedure: as §2

[8] = test system: Enterococcus faecium Patient #2-1-NR-31909; assay: MIC, broth microdilution in TSB; type: cell-based; settings: Enterococcus faecium
Procedure: as §2

[9] = test system: Enterococcus faecium Patient #3-1 NR-31912; assay: MIC, broth microdilution in TSB; type: cell-based; settings: Enterococcus faecium
Procedure: as §2

[10] = test system: Enterococcus fecalis Strain MMH594-NR31975; assay: MIC, broth microdilution in TSB; type: cell-based; settings: Enterococcus
Procedure: as §2

[11] = test system: Enterococcus fecalis Strain SF 24397 NR31970; assay: MIC, broth microdilution in TSB; type: cell-based; settings: Enterococcus
Procedure: as §2

[12] = test system: Enterococcus fecalis Strain SF 28073-NR31972; assay: MIC, broth microdilution in TSB; type: cell-based; settings: Enterococcus
Procedure: as §2

[13] = test system: Enterococcus fecalis Strain SF24413 NR31971; assay: MIC, broth microdilution in TSB; type: cell-based; settings: Enterococcus
Procedure: as §2

[14] = test system: MRSA NRS 384 (MRSA USA300); assay: MIC against Staphylococci, broth microdilution; type: cell-based, Staphylococcus aureus; settings: Staphylococcus aureus
Procedure: as §2, with “Institute (CLSI) 1. Staphylococci” for “Institute (CLSI). Enterococci”, “Table 2” for “Table 1”

[15] = test system: Staphylococcus epidermidis NRS 101; assay: MIC against Staphylococci, broth microdilution; type: cell-based; settings: Staphylococcus epidermidis, NRS101
Procedure: as §2, with “Institute (CLSI) 1. Staphylococci” for “Institute (CLSI). Enterococci”, “Table 2” for “Table 1”

[16] = test system: Bacteroides dorei—CL02T12C06 HM-719; assay: MIC against human normal gut microbiota; type: cell-based; settings: Bacteroides, 48 h
Procedure: (§3) Three different bacterial strains were used in this experiment; Bifidobacterium (anaerobic Gram positive bacteria), Bacteroides (anaerobic Gram negative bacteria) and Lactobacillus (microaerophilic Gram positive bacteria). Bifidobacterium and Bacteroides were first grown for 48 hours at 37° C., anaerobically using brain heart infusion supplemented (BHIS) agar (Brain heart infusion agar supplemented with hemin, vitamin K and L-cysteine). Lactobacillus was cultivated on MRS agar and incubated in presence of 5% CO2 for 48 hours at 37° C. Each bacterium was suspended in phosphate buffered saline (PBS) to produce a suspension with optical density that matches 0.5 McFarland standard and diluted in brain heart infusion supplemented broth (for Bifidobacterium and Bacteroides) or in MRS broth (for Lactobacillus) to achieve bacterial concentration of approximately 5×10^5 CFU/ml. Bacteria were then seeded in 96-well plates containing serial dilutions of the compounds and incubated as mentioned previously for 48 hours.

[17] = test system: Bacteroides fragilis—CL07T00C01 HIM-709; assay: MIC against human normal gut microbiota; type: cell-based; settings: Bacteroides, 48 h
Procedure: as §3

[18] = test system: Bifidobacterium breve—JCP7499 HIM 1120; assay: MIC against human normal gut microbiota; type: cell-based; settings: Bifidobacterium, 48 h
Procedure: as §3

[19] = test system: Bifidobacterium longum subsp. Longum—44B HM 845; assay: MIC against human normal gut microbiota; type: cell-based; settings: Bifidobacterium longum, 48 h
Procedure: as §3

[20] = test system: Lactobacillus casei ATCC 334; assay: MIC against human normal gut microbiota; type: cell-based; settings: Lacticaseibacillus casei, ATCC334, 48 h
Procedure: as §3

[21] = test system: Lactobacillus gasseri EX336960VC03 HIM-400; assay: MIC against human normal gut microbiota; type: cell-based; settings: Lactobacillus gasseri, 48 h
Procedure: as §3

[22] = Enterococcus faecium, E417HM965, BHIB, read-out: MIC
[23] = Enterococcus faecium, E417HM965, TSB, Table 5, read-out: MIC
[24] = Enterococcus faecium, BHIB, read-out: MIC
[25] = Enterococcus faecium, TSB, Table 5, read-out: MIC
[26] = Enterococcus, BHIB, read-out: MIC
[27] = Enterococcus, TSB, Table 5, read-out: MIC
[28] = Enterococcus, BHIIB, read-out: MIC

## CCOc1ccc2nc(S(N)(=O)=O)sc2c1 [Ethoxzolamide]
[1]; [22]
  MIC: 16 mg/L
[1]; [23]
  MIC: 2 mg/L
[2]; [24]
  MIC: 64 mg/L
[2]; [25]
  MIC: 2 mg/L
[3]; [26]
  MIC: > 128 mg/L
[3]; [27]
  MIC: 2 mg/L
[4]; [28]
  MIC: > 128 mg/L
[4]; [27]
  MIC: 1 mg/L
[5]
  MIC: > 256 mg/L

## CC(=O)/N=c1/sc(S(N)(=O)=O)nn1C [Methazolamide]
[1]; [22]
  MIC: 64 mg/L
[1]; [23]
  MIC: 4 mg/L
[2]; [24]
  MIC: > 128 mg/L
[2]; [25]
  MIC: 8 mg/L
[3]; [26]
  MIC: > 128 mg/L
[3]; [27]
  MIC: 2 mg/L
[4]; [28]
  MIC: > 128 mg/L
[4]; [27]
  MIC: 1 mg/L
[5]
  MIC: > 256 mg/L

## CN[C@H](CC(C)C)C(=O)N[C@H]1C(=O)N[C@@H](CC(N)=O)C(=O)N[C@H]2C(=O)N[C@H]3C(=O)N[C@H](C(=O)N[C@H](C(=O)O)c4cc(O)cc(O)c4-c4cc3ccc4O)[C@H](O)c3ccc(c(Cl)c3)Oc3cc2cc(c3O[C@@H]2O[C@H](CO)[C@@H](O)[C@H](O)[C@H]2O[C@H]2C[C@](C)(N)[C@H](O)[C@H](C)O2)Oc2ccc(cc2Cl)[C@H]1O [Vancomycin, reference compound]
[6]
  MIC: > 64 mg/L
[6]; read-out: MIC in TSB
  MIC: > 64 mg/L
[7]; E417HM965
  MIC: > 64 mg/L
[7]; E417HM965, read-out: MIC in TSB
  MIC: > 64 mg/L
[8]
  MIC: > 64 mg/L
[8]; read-out: MIC in TSB
  MIC: > 64 mg/L
[9]
  MIC: > 64 mg/L
[9]; read-out: MIC in TSB
  MIC: > 64 mg/L
[10]
  MIC: 2 mg/L (≈ 1.38 µM)
[10]; read-out: MIC in TSB
  MIC: 2 mg/L (≈ 1.38 µM)
[11]
  MIC: 2 mg/L (≈ 1.38 µM)
[11]; read-out: MIC in TSB
  MIC: 2 mg/L (≈ 1.38 µM)
[12]
  MIC: > 64 mg/L
[12]; read-out: MIC in TSB
  MIC: > 64 mg/L
[13]
  MIC: 32 mg/L (≈ 22.1 µM)
[13]; read-out: MIC in TSB
  MIC: 32 mg/L (≈ 22.1 µM)
[14]
  MIC: 1 mg/L (≈ 0.69 µM)
[15]
  MIC: 4 mg/L (≈ 2.76 µM)
[16]
  MIC: 64 mg/L (≈ 44.2 µM)
[17]
  MIC: 64 mg/L (≈ 44.2 µM)
[18]
  MIC: 8 mg/L (≈ 5.52 µM)
[19]
  MIC: 8 mg/L (≈ 5.52 µM)
[20]
  MIC: > 64 mg/L
[21]
  MIC: > 64 mg/L
[1]; Enterococcus faecium, E417HM965
  MIC: > 128 mg/L
[1]; TSB, Table 5
  MIC: >128 mg/L
[2]; Enterococcus faecium
  MIC: > 128 mg/L
[2]; TSB, Table 5
  MIC: >128 mg/L
[3]; Enterococcus
  MIC: 2 mg/L
[3]; TSB, Table 5
  MIC: 2 mg/L
[4]; Enterococcus
  MIC: > 128 mg/L
[4]; TSB, Table 5
  MIC: >128 mg/L
